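Step 1: Grow cells in 96-well plates. Step 2: Expose to compound for 48 hours at 5 concentrations. Step 3: Interpolate endpoints linearly; if unreached, use highest concentration. At the TGI there is no net growth.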
Columns and labels:
Experiment in all cases: growth of human tumour cells (NCI), 48 h
HS 578T breast = test system: HS 578T breast
SW-620 colon = test system: SW-620 colon
SF-295 CNS = test system: SF-295 CNS
PC-3 prostate = test system: PC-3 prostate
UACC-257 melanoma = test system: UACC-257 melanoma
KM12 colon = test system: KM12 colon
SR leukemia = test system: SR leukemia
SNB-19 CNS = test system: SNB-19 CNS
NCI-H460 lung = test system: NCI-H460 lung
RXF 393 renal = test system: RXF 393 renal
TK-10 renal = test system: TK-10 renal
NCI-H522 lung = test system: NCI-H522 lung
OVCAR-4 ovarian = test system: OVCAR-4 ovarian
MDA-N = test system: MDA-N
SK-MEL-28 melanoma = test system: SK-MEL-28 melanoma
K-562 leukemia = test system: K-562 leukemia
SK-OV-3 ovarian = test system: SK-OV-3 ovarian
HCT-116 colon = test system: HCT-116 colon
ACHN renal = test system: ACHN renal
MOLT-4 leukemia = test system: MOLT-4 leukemia
A498 renal = test system: A498 renal
HCC-2998 colon = test system: HCC-2998 colon
NCI-H226 lung = test system: NCI-H226 lung
SNB-75 CNS = test system: SNB-75 CNS
A549 NSCLC = test system: A549 NSCLC
SK-MEL-5 melanoma = test system: SK-MEL-5 melanoma
MCF7 breast = test system: MCF7 breast
HT29 colon = test system: HT29 colon
UO-31 renal = test system: UO-31 renal
DU-145 prostate = test system: DU-145 prostate
CCRF-CEM leukemia = test system: CCRF-CEM leukemia
COLO 205 colon = test system: COLO 205 colon
SF-268 CNS = test system: SF-268 CNS
NCI/ADR-RES ovarian = test system: NCI/ADR-RES ovarian
OVCAR-8 ovarian = test system: OVCAR-8 ovarian
SN12C renal = test system: SN12C renal
HOP-92 NSCLC = test system: HOP-92 NSCLC
LOX IMVI melanoma = test system: LOX IMVI melanoma
RPMI-8226 leukemia = test system: RPMI-8226 leukemia
HOP-62 NSCLC = test system: HOP-62 NSCLC
SF-539 CNS = test system: SF-539 CNS
HL-60(TB) leukemia = test system: HL-60(TB) leukemia
UACC-62 melanoma = test system: UACC-62 melanoma
BT-549 breast = test system: BT-549 breast
U251 CNS = test system: U251 CNS
CAKI-1 renal = test system: CAKI-1 renal
OVCAR-3 ovarian = test system: OVCAR-3 ovarian
MALME-3M melanoma = test system: MALME-3M melanoma
MDA-MB-231 breast = test system: MDA-MB-231 breast
NCI-H23 lung = test system: NCI-H23 lung
786-0 renal = test system: 786-0 renal
OVCAR-5 ovarian = test system: OVCAR-5 ovarian
MDA-MB-435 = test system: MDA-MB-435
T-47D breast = test system: T-47D breast
HCT-15 colon = test system: HCT-15 colon
IGROV1 ovarian = test system: IGROV1 ovarian
EKVX NSCLC = test system: EKVX NSCLC
M14 melanoma = test system: M14 melanoma
SK-MEL-2 melanoma = test system: SK-MEL-2 melanoma

Measured: TGI

Cc1ccc(S(=O)(=O)NCCSCCSCCNS(=O)(=O)c2ccc(C)cc2)cc1
41.2 µM: COLO 205 colon
18 µM: SK-MEL-5 melanoma
91.6 µM: A498 renal
> 100 µM: HS 578T breast | SW-620 colon | SF-295 CNS | PC-3 prostate | UACC-257 melanoma | KM12 colon | SR leukemia | SNB-19 CNS | NCI-H460 lung | RXF 393 renal | TK-10 renal | NCI-H522 lung | OVCAR-4 ovarian | MDA-N | SK-MEL-28 melanoma | K-562 leukemia | SK-OV-3 ovarian | HCT-116 colon | ACHN renal | MOLT-4 leukemia | HCC-2998 colon | NCI-H226 lung | A549 NSCLC | MCF7 breast | HT29 colon | UO-31 renal | DU-145 prostate | CCRF-CEM leukemia | SF-268 CNS | NCI/ADR-RES ovarian | OVCAR-8 ovarian | SN12C renal | HOP-92 NSCLC | LOX IMVI melanoma
68.7 µM: SNB-75 CNS

CC1(O)OC(=O)C2=C1CCC1C2CCC2(C)C(O)CCC12 (stereo not given)
> 100 µM: RPMI-8226 leukemia | HOP-62 NSCLC | HS 578T breast | SW-620 colon | SF-295 CNS | SF-539 CNS | HL-60(TB) leukemia | UACC-257 melanoma | UACC-62 melanoma | KM12 colon | SR leukemia | BT-549 breast | SNB-19 CNS | NCI-H460 lung | U251 CNS | TK-10 renal | NCI-H522 lung | OVCAR-4 ovarian | CAKI-1 renal | MDA-N | SK-MEL-28 melanoma | K-562 leukemia | OVCAR-3 ovarian | MALME-3M melanoma | MDA-MB-231 breast | HCT-116 colon | NCI-H23 lung | ACHN renal | 786-0 renal | A498 renal | OVCAR-5 ovarian | HCC-2998 colon | NCI-H226 lung | MDA-MB-435 | A549 NSCLC | SK-MEL-5 melanoma | MCF7 breast | T-47D breast | HT29 colon | UO-31 renal | HCT-15 colon | DU-145 prostate | CCRF-CEM leukemia | SF-268 CNS | NCI/ADR-RES ovarian | OVCAR-8 ovarian | IGROV1 ovarian | SN12C renal | HOP-92 NSCLC | LOX IMVI melanoma | EKVX NSCLC | M14 melanoma

O=C1C[C@@H](c2ccccc2)O[C@@H](c2ccccc2)C1
> 100 µM: RPMI-8226 leukemia | HOP-62 NSCLC | HS 578T breast | SW-620 colon | SF-295 CNS | PC-3 prostate | SF-539 CNS | UACC-257 melanoma | UACC-62 melanoma | KM12 colon | BT-549 breast | SNB-19 CNS | NCI-H460 lung | U251 CNS | RXF 393 renal | OVCAR-4 ovarian | CAKI-1 renal | MDA-N | K-562 leukemia | SK-OV-3 ovarian | OVCAR-3 ovarian | MALME-3M melanoma | MDA-MB-231 breast | HCT-116 colon | NCI-H23 lung | MOLT-4 leukemia | 786-0 renal | OVCAR-5 ovarian | SK-MEL-2 melanoma | HCC-2998 colon | NCI-H226 lung | SNB-75 CNS | MDA-MB-435 | A549 NSCLC | SK-MEL-5 melanoma | MCF7 breast | T-47D breast | HT29 colon | UO-31 renal | HCT-15 colon | DU-145 prostate | CCRF-CEM leukemia | COLO 205 colon | SF-268 CNS | NCI/ADR-RES ovarian | OVCAR-8 ovarian | IGROV1 ovarian | SN12C renal | HOP-92 NSCLC | LOX IMVI melanoma | EKVX NSCLC | M14 melanoma

CC(C)(C)OC(=O)NCCC1CN(C(=O)c2ccccc2)c2ccccc21 (stereo not given)
85.5 µM: MCF7 breast
80.9 µM: MALME-3M melanoma
54.4 µM: RPMI-8226 leukemia
57.5 µM: NCI/ADR-RES ovarian
65.3 µM: OVCAR-3 ovarian
75.2 µM: UACC-257 melanoma | SNB-75 CNS
76.1 µM: UO-31 renal
56.3 µM: NCI-H460 lung
91.2 µM: SK-MEL-28 melanoma | SK-MEL-2 melanoma
42.3 µM: UACC-62 melanoma
40 µM: COLO 205 colon
66.5 µM: BT-549 breast
95.5 µM: T-47D breast
48.4 µM: MDA-N
83.2 µM: HOP-62 NSCLC
33.6 µM: M14 melanoma
94.6 µM: HOP-92 NSCLC
88.8 µM: NCI-H23 lung
84.7 µM: MDA-MB-435
43 µM: HCT-116 colon
67.8 µM: OVCAR-8 ovarian
> 100 µM: HS 578T breast | SW-620 colon | SF-295 CNS | PC-3 prostate | KM12 colon | SR leukemia | SNB-19 CNS | U251 CNS | TK-10 renal | OVCAR-4 ovarian | CAKI-1 renal | K-562 leukemia | SK-OV-3 ovarian | MDA-MB-231 breast | ACHN renal | 786-0 renal | A498 renal | OVCAR-5 ovarian | HCC-2998 colon | A549 NSCLC | HCT-15 colon | DU-145 prostate | SF-268 CNS | IGROV1 ovarian | EKVX NSCLC
74.4 µM: MOLT-4 leukemia
32 µM: SK-MEL-5 melanoma
63.7 µM: HT29 colon
99 µM: RXF 393 renal
64.2 µM: NCI-H522 lung

Source: PubChem BioAssay (NCI)
